Source: PubChem BioAssay (NCI)
“And” between values parts separate entries of the source, which are not always exact repeats. Equal entries are not always repeated.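 Growth conditions: 96-well plates. Treatment: test compound, 48 hours, 5 concentrations. Analysis: linear interpolation between bracketing concentrations; unreached endpoints set to highest concentration. GI50 = concentration required for 50% inhibition of growth. At the TGI there is no net growth.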

What was measured:
Assay in all cases: NCI-60 cell line screen, 48 h
CAKI-1 renal = system: CAKI-1 renal
SNB-19 CNS = system: SNB-19 CNS
OVCAR-4 ovarian = system: OVCAR-4 ovarian
CCRF-CEM leukemia = system: CCRF-CEM leukemia
SF-268 CNS = system: SF-268 CNS
T-47D breast = system: T-47D breast
BT-549 breast = system: BT-549 breast
SF-539 CNS = system: SF-539 CNS
HCT-15 colon = system: HCT-15 colon
MDA-MB-231 breast = system: MDA-MB-231 breast

Structure (SMILES)	GI50 (CAKI-1 renal) [µM]	TGI (CAKI-1 renal) [µM]	GI50 (SNB-19 CNS) [µM]	TGI (SNB-19 CNS) [µM]	GI50 (OVCAR-4 ovarian) [µM]	TGI (OVCAR-4 ovarian) [µM]	GI50 (CCRF-CEM leukemia) [µM]	TGI (CCRF-CEM leukemia) [µM]	GI50 (SF-268 CNS) [µM]	TGI (SF-268 CNS) [µM]	GI50 (T-47D breast) [µM]	TGI (T-47D breast) [µM]	GI50 (BT-549 breast) [µM]	TGI (BT-549 breast) [µM]	GI50 (SF-539 CNS) [µM]	TGI (SF-539 CNS)	GI50 (HCT-15 colon) [µM]	TGI (HCT-15 colon) [µM]	GI50 (MDA-MB-231 breast) [µM]	TGI (MDA-MB-231 breast) [µM]
COc1cc(/C=C/C(=O)C(C(=O)/C=C/c2ccc(OC(=O)CCNc3nnc(C)s3)c(OC)c2)C(=O)CCNc2nnc(C)s2)ccc1OC(=O)CCNc1nnc(C)s1	2.86	> 34.2	4.79	18.3	4.76	> 61.5	1.09	2.51	2.64	11.2	4.14	> 47.5	2.36	5.77	2.43	6.03 µM	2.47	5.86	2.23	7.4
O=C(CC/C(CC(=O)c1ccc(Cl)cc1)=N/O)Nc1ccc(Cl)c(Cl)c1		> 100		> 100		> 100		> 100		> 100						> 100 µM		> 100		
Cc1ccc(/C=C/C(=O)c2ccc(N)cc2)c(C)c1	1.72	3.18	14.4	27.8	2.09	5			1.88	3.7	2.05	4.64	1.68	3.4	2.39	5.45 µM			2.68	6.75
N#CCCN(CCC#N)c1ccc(/C=N\c2nc(-c3ccccc3)cs2)cc1		> 100		> 100		> 100				> 100						> 100 µM		> 100		
COc1cc2c3c(n(CCCNC(=O)OCC4c5ccccc5-c5ccccc54)c(=O)c2cc1OC)-c1cc2c(cc1C3=O)OCO2	4.05	> 100	> 76.4	> 100	> 100	> 100			16.6	> 72.4	> 100	> 100			7.25	31.2 µM	> 63.2	> 100	15.9	> 74.2
N#CCC12CC=CCC1=C(O)C(=O)c1ccc(O)cc12 (stereo not drawn)		> 100		> 100		> 100		> 100		> 100		> 100				> 100 µM		> 100		> 100
N#CCc1ccc(/C(C#N)=C2/OC(=N)C(c3ccc(CC#N)cc3)C2=O)cc1 (stereo not drawn)		> 100		> 100		> 100		> 100		> 100						> 100 µM		> 100		
Cc1ccc(-c2nc3c(C(=O)NCCN(C)C)cccc3[nH]2)cc1		> 100		> 100		85.3		47.4		48.9						23 µM		58.2		
CC1(C)N=C(N)N=C(N)N1c1ccc(OCC(=O)N2CCOCC2)c(Cl)c1			19.1	> 100	> 100	> 100	3.55	> 100	0.759	> 100	> 100	> 100	14.8	> 100	5.32	> 100 µM	> 100	> 100	> 100	> 100
COC(=O)c1c(C)cc2c(c1O)C1(O)C(=O)c3cc4c(c(O)c3C(=O)C1(OC)C(O)C2)C(=O)C=C(NC1OC(C)C(OC)C(O)C1OC)C4=O (stereo not drawn)		0.806		1.22		0.213		0.166		0.648						0.2 µM		0.443		
O=C(Nc1ccc([N+](=O)[O-])cc1C(=O)O)c1ccc([N+](=O)[O-])cc1				> 100		> 100		26.9		> 100						> 100 µM		> 100		
Cc1[nH]n(-c2ccc(S(=O)(=O)O)cc2)c(=O)c1N=Nc1ccccc1		> 100		> 100		> 100				> 100		> 100		> 100		> 100 µM		> 100		> 100
COCOCc1cc(OCc2ccccc2)c(OC)cc1Br		> 100		> 100		> 100		> 100		> 100						> 100 µM		> 100		
O=C1Cc2ccccc2N1c1c(Cl)cccc1Cl		> 100		> 100		> 100		> 100		> 100						> 100 µM		> 100		
Cc1nc(N)sc1N=Nc1cc(Cl)c([N+](=O)[O-])cc1Cl		68.5		> 100				35		88.5		> 100				41.8 µM		79.3		45.9
Cc1cc(Cl)ccc1NC(=O)CC1SC(N)=NC1=O (stereo not drawn)		> 100		> 100		> 100		> 100		> 100						> 100 µM		> 100		
O=C1CCCC(=O)C1=C(O)CCCCCCCCCCc1ccccc1		38		> 100		> 100		70.8		> 100						> 100 µM				
CCOC(=O)N[C@H]1CCc2cc(O)c(OC)c(OC)c2-c2ccc(SC)c(=O)cc21		> 65.3		> 100		> 100		> 13.9		37.8						0.044 µM		> 100		
CN(C)CC(C)(C)C(/C=C/c1ccccc1)=N\Nc1ccccc1				> 100		17.9		16.2		15.4						0.897 µM		2.46		
Cn1cnc([N+](=O)[O-])c1SC1=NCCS1		> 100		> 100		> 100		> 100		> 100						> 100 µM				
CCN(CC)CCC(=O)N1CCc2c([nH]c3ccccc23)C1c1cccnc1 (stereo not drawn)		> 100		> 100		> 100		> 100		> 100						> 100 µM		> 100		

Structure (SMILES)	GI50 (CAKI-1 renal) [µM]	TGI (CAKI-1 renal) [µM]	GI50 (SNB-19 CNS) [µM]	TGI (SNB-19 CNS) [µM]	GI50 (OVCAR-4 ovarian) [µM]	TGI (OVCAR-4 ovarian) [µM]	GI50 (CCRF-CEM leukemia) [µM]	TGI (CCRF-CEM leukemia) [µM]	GI50 (SF-268 CNS) [µM]	TGI (SF-268 CNS) [µM]	GI50 (T-47D breast) [µM]	TGI (T-47D breast) [µM]	GI50 (BT-549 breast) [µM]	TGI (BT-549 breast) [µM]	GI50 (SF-539 CNS) [µM]	TGI (SF-539 CNS)	GI50 (HCT-15 colon) [µM]	TGI (HCT-15 colon) [µM]	GI50 (MDA-MB-231 breast) [µM]	TGI (MDA-MB-231 breast) [µM]
Oc1ccc2c3c1OC1C(=NN=C4CCC5(O)C6Cc7ccc(O)c8c7C5(CCN6CC5CC5)C4O8)CCC4(O)C(C2)N(CC2CC2)CCC314 (stereo not drawn)		> 100		> 100		> 66		> 68.1		> 83.3						> 55.5 µM		> 100		
CC(=O)c1c(O)ccc2c(C)c(C(=O)O)oc12	> 100	> 100	> 100	> 100	> 100	> 100	> 100	> 100	> 100	> 100	> 100	> 100	> 100	> 100	> 100	> 100 µM	> 100	> 100		
Cn1cnc([N+](=O)[O-])c1Sc1nc2cccnc2s1		21		> 100		25.2				69.1						42 µM		24.8		
C#C[C@@]1(O)CCCC2=CC(=O)C[C@]21C				> 100				> 100		> 100						> 100 µM		> 100		
CCOCC(=O)N[C@H]1CCc2cc(OC(=O)COCC)c(OC)c(OC)c2-c2ccc(SC)c(=O)cc21			0.0283	> 100		> 100	0.0127		0.0431						0.0126	0.061 µM and 0.0554 µM		2.85	0.036	
COc1cc(C(=O)/C=C/c2c(-c3ccc(F)cc3)nc3ncccn23)cc(OC)c1OC			3.12	15.5	2.93	> 100	4.05	> 100	1.9	14.1	2.09	9.22	1.8	19.4	1.55	3.77 µM			2.99	16.5
COc1cc2c(cc1OCCCCCn1c(-c3ccco3)nc3ccccc31)N=C[C@@H]1CCCN1C2=O	< 0.01	0.0318			< 0.014	> 41.4	< 0.01	0.09	< 0.01		< 0.01		< 0.01	< 0.0209	< 0.01	< 0.0472 µM	0.0452	26.4	< 0.0141	0.224
COc1ccc(NC(=O)COC(=O)c2cccc3c(=O)c4ccccc4[nH]c23)cc1		67.9		> 100		38.4		28		55.2						37.1 µM				
CN1C(=O)c2cc([N+](=O)[O-])ccc2[C@H]2C(=O)c3cc4c(cc3[C@H]21)OCO4	< 0.01	0.228	0.22	> 28.2	0.68	> 100			0.0243	1.68	0.321	> 29.4			0.041	0.973 µM	0.19	> 50	0.36	4.71
Cc1ccc(NC(=O)COC(=O)c2cccc3c(=O)c4ccccc4[nH]c23)cc1		> 100		> 100		> 100				> 100						> 100 µM				
S=P1(c2ccccc2)Nc2ccc(Cl)cc2N1 (stereo not drawn)		> 100		> 100		> 100		> 100		> 100						> 100 µM		> 100		
COC(=O)c1cc2c3ccccc3n3c(=O)c4cc5cc(OC)c(N(S(=O)(=O)c6ccc(C)cc6)S(=O)(=O)c6ccc(C)cc6)cc5nc4c(n1)c23	> 100	> 100	5.8	32	> 100	> 100			7.78	> 100	> 100	> 100	11	27.8	13	30.6 µM	> 100	> 100	9.62	32.3
C=CCC12CC(=O)C=C1CCC1(C2)OCCO1 (stereo not drawn)		> 100		> 100		> 100		> 100		> 100						> 100 µM		> 100		
O=C1Nc2ccccc2/C1=C/c1cn(C(=O)c2c(Cl)cccc2Cl)c2ccccc12	1.89	5.77	7.32	> 100			0.337	15.6	2.38	10.6	4.13	93	2.4	8.95	4.96	21.1 µM	3.46	22.6	3.09	16.8
O=c1[nH]ccc2nc(-c3ccc(CN4CCC(c5nc(-c6ccccn6)n[nH]5)CC4)cc3)c(-c3ccccc3)cc12			17.1	> 100	> 80.7	> 100	2.04	> 100	25.9	> 100		0.0729	0.711	30	4.81	20.8 µM	16.5	> 100	19.2	> 75.8
CCC[CH2][Sn]1([CH2]CCC)[O]C(=O)c2cccc(OC)c2[O]1	0.0732	0.775	0.799	2.13	1.05	2.25	0.0261		0.194	0.841					0.387	1.42 µM	0.698	2		
CC1C=CC(C)C2(O)C(=O)NC(O)C12 (stereo not drawn)		> 100		> 100		> 100		> 100		> 100						> 100 µM		> 100		
CN(C)c1ccc(/C=C/c2ccnc3ccccc23)cc1N				28.5		32.9		> 100		23.2		5.36				28.8 µM		22.8		20.1
COc1ccc(N(C)c2nc(Cl)nc3ccn(C)c23)cc1			< 0.01	> 100	< 0.01	> 100	< 0.01	> 100	< 0.01	> 100	> 100	> 100	< 0.01	> 100	< 0.01	> 100 µM	< 0.01	> 100	< 0.01	> 100
O=C1C2C(C(=O)N1c1ccccc1)C1(c3ccccc3)OC2(c2ccccc2)c2ccccc21 (stereo not drawn)		> 100		> 100		> 100		> 100		> 100						> 100 µM		> 100		
